Data from patent US20070244190A1, “Neobritannilactone B and acetyl neobritannilactone B” (priority 2006, published 2007).
Like-named read-outs stand apart in the source and are kept apart here.

Key:
[1] = system: HT-29 cells; experiment: Apoptosis (sub-G1) by flow cytometry; assay type: cell-based, human; details: 24 h, mean ± SE
Experimental: (§1) Cell Culture and Chemicals. The COLO 205 and HT 29 cell lines were isolated from human colon adenocarcinoma (ATCC CCL-222 and HTB-38); human promyelocytic leukemia (HL-60) cells were obtained from American Type Culture Collection (Rockville, Md.). The human AGS gastric carcinoma cell lines (CCRC 60102) were obtained from the Food Industry Research and Development Institute (Hsinchu, Taiwan). Cell lines were grown at 37° C. in 5% CO2 dioxide atmosphere in RPMI for COLO 205, HT-29, and HL-60 cells and DMEM/F12 for AGS cells, all supplemented with 10% heat-inactivated fetal bovine serum (GIBCO BRL, Grand Island, N.Y.) (100 units/mL of penicillin, 100 μg/mL of streptomycin), and 2 mM L-glutamine (GIBCO BRL). Selected compounds were dissolved in dimethyl sulfoxide (DMSO). Propidium iodide was obtained from Sigma Chemical Co. (St. Louis, Mo.).
(§2) Flow Cytometry. Human cancer cells (2×10^5) were cultured in 60-mm Petri dishes and incubated for 24 h. The apoptotic cells (sub-G1) in the selected compounds and treated cells were measured by flow cytometry analysis. Then cells were harvested, washed with PBS, resuspended in 200 μL of PBS, and fixed in 800 μL of iced 100% ethanol at −20° C. After being left to stand overnight, the cell pellets were collected by centrifugation, resuspended in 1 mL of hypotonic buffer (0.5% Triton X-100 in PBS and 0.5 μg/mL RNase), and incubated at 37° C. for 30 min. Then 1 mL of propidium iodide solution (50 μg/mL) was added and the mixture was allowed to stand on ice for 30 min. Fluorescence emitted from the propidium iodide-DNA complex was quantitated after excitation of the fluorescent dye by FACScan cytometry (Becton Dickinson, San Jose, Calif.).
(§3) The compounds isolated from Inula were tested for their effects on the apoptotic ratio in human cancer cells.

[2] = system: AGS cells; experiment: Apoptosis (sub-G1) by flow cytometry; assay type: cell-based, human; details: 24 h, mean ± SE
Experimental: as §1, §2, §3

[3] = system: HL-60 cells; experiment: Apoptosis (sub-G1) by flow cytometry; assay type: cell-based, human; details: 24 h, mean ± SE
Experimental: as §1, §2, §3

[4] = system: COLO 205 cells; experiment: Apoptosis (sub-G1) by flow cytometry; assay type: cell-based, human; details: 24 h, mean ± SE
Experimental: as §1, §2, §3

[5] = system: HT-29 cells; experiment: Cell viability, trypan blue exclusion, 24 h; assay type: cell-based; details: HT-29, 24 h, mean ± SE, n=3, read-out: IC50, growth of human cancer cells
Experimental: as §1
(§4) Determination of Cell Viability. Human cancer cells were treated either with DMSO (0.01%) or the selected compounds (5-100 μM). Cell viability was determined at 24 h based on trypan blue exclusion assay. The viability percentage was calculated based on the percentage of unstained cells. Suspensions of cells were diluted 1:1 with 0.5% trypan blue solution. Stained and unstained cells were counted in a hemocytometer.

[6] = system: AGS cells; experiment: Cell viability, trypan blue exclusion, 24 h; assay type: cell-based; details: mean ± SE, n=3, read-out: IC50, growth of human cancer cells
Experimental: as §1, §4

[7] = system: HL-60 cells; experiment: Cell viability, trypan blue exclusion, 24 h; assay type: cell-based; details: HL-60, 24 h, mean ± SE, n=3, read-out: IC50, growth of human cancer cells
Experimental: as §1, §4

[8] = system: COLO 205 cells; experiment: Cell viability, trypan blue exclusion, 24 h; assay type: cell-based; details: COLO 205, 24 h, mean ± SE, n=3, read-out: IC50, growth of human cancer cells
Experimental: as §1, §4

C=C1C(=O)OC2CC(C)=C(C(C)CCCOC(C)=O)C(O)C12 (stereo not drawn) [Compound 6, 1-O-acetylbritannilactone]
apoptotic ratio ([1]; HT-29, 5 μM): 5.36 ± 1.80%
apoptotic ratio ([1]; HT-29, 10 μM): 6.81 ± 2.14%
apoptotic ratio ([1]; HT-29, 25 μM): 11.68 ± 3.02%
apoptotic ratio ([1]; HT-29, 50 μM): 9.26 ± 1.80%
apoptotic ratio ([1]; HT-29, 100 μM): 14.87 ± .90%
apoptotic ratio ([2]; 5 μM): 15.37 ± 6.22%
apoptotic ratio ([2]; 10 μM): 17.28 ± 2.29%
apoptotic ratio ([2]; 25 μM): 14.66 ± 1.38%
apoptotic ratio ([2]; 50 μM): 14.84 ± .58%
apoptotic ratio ([2]; 100 μM): 18.85 ± .68%
apoptotic ratio ([3]; HL-60, 5 μM): 4.05 ± 0.31%
apoptotic ratio ([3]; HL-60, 10 μM): 7.26 ± 2.15%
apoptotic ratio ([3]; HL-60, 25 μM): 4.37 ± 0.57%
apoptotic ratio ([3]; HL-60, 50 μM): 5.69 ± 0.60%
apoptotic ratio ([3]; HL-60, 100 μM): 22.19 ± 4.14%
apoptotic ratio ([4]; COLO 205, 5 μM): 13.44 ± .25%
apoptotic ratio ([4]; COLO 205, 10 μM): 11.32 ± .421%
apoptotic ratio ([4]; COLO 205, 25 μM): 16.48 ± 3.75%
apoptotic ratio ([4]; COLO 205, 50 μM): 16.59 ± 0.71%
apoptotic ratio ([4]; COLO 205, 100 μM): 35.79 ± 1.36%
IC50 [5]: 96 ± 12.5 µM
IC50 [6]: > 100 µM
IC50 [7]: > 100 µM
IC50 [8]: > 100 µM

C=C1C(=O)O[C@@H]2CC(C)=C([C@@H](C)CCCO)[C@H](O)[C@H]12 [Compound 5, britannilactone]
apoptotic ratio ([1]; HT-29, 5 μM): 5.75 ± 1.77%
apoptotic ratio ([1]; HT-29, 10 μM): 6.16 ± 1.23%
apoptotic ratio ([1]; HT-29, 25 μM): 6.49 ± 1.07%
apoptotic ratio ([1]; HT-29, 50 μM): 6.59 ± 0.54%
apoptotic ratio ([1]; HT-29, 100 μM): 7.55 ± .08%
apoptotic ratio ([2]; 5 μM): 7.93 ± 1.71%
apoptotic ratio ([2]; 10 μM): 10.37 ± 0.98%
apoptotic ratio ([2]; 25 μM): 10.16 ± .28%
apoptotic ratio ([2]; 50 μM): 8.97 ± 0.66%
apoptotic ratio ([2]; 100 μM): 10.37 ± 0.66%
apoptotic ratio ([3]; HL-60, 5 μM): 7.22 ± 1.54%
apoptotic ratio ([3]; HL-60, 10 μM): 5.64 ± 2.00%
apoptotic ratio ([3]; HL-60, 25 μM): 5.24 ± 0.67%
apoptotic ratio ([3]; HL-60, 50 μM): 8.01 ± 1.34%
apoptotic ratio ([3]; HL-60, 100 μM): 12.83 ± .06%
apoptotic ratio ([4]; COLO 205, 5 μM): 11.90 ± 3.61%
apoptotic ratio ([4]; COLO 205, 10 μM): 12.28 ± 5.24%
apoptotic ratio ([4]; COLO 205, 25 μM): 12.79 ± 1.84%
apoptotic ratio ([4]; COLO 205, 50 μM): 15.54 ± 2.14%
apoptotic ratio ([4]; COLO 205, 100 μM): 28.31 ± 1.89%
IC50 ([5]; Homo sapiens): > 100 µM
IC50 ([6]; Homo sapiens): > 100 µM
IC50 ([7]; Homo sapiens): > 100 µM
IC50 ([8]; Homo sapiens): > 100 µM

C=C1C(=O)OC2CC(C)=C(C(C)CCCOC(C)=O)C(OC(C)=O)C12 (stereo not drawn) [Compound 7, 1,6-O,O-diacetylbritannilactone]
apoptotic ratio ([1]; HT-29, 5 μM): 11.19 ± 3.98%
apoptotic ratio ([1]; HT-29, 10 μM): 11.15 ± 2.84%
apoptotic ratio ([1]; HT-29, 25 μM): 11.50 ± .92%
apoptotic ratio ([1]; HT-29, 50 μM): 13.08 ± 0.63%
apoptotic ratio ([1]; HT-29, 100 μM): 20.88 ± .09%
apoptotic ratio ([2]; 5 μM): 7.49 ± .88%
apoptotic ratio ([2]; 10 μM): 5.79 ± 0.64%
apoptotic ratio ([2]; 25 μM): 11.29 ± 2.16%
apoptotic ratio ([2]; 50 μM): 10.79 ± 2.79%
apoptotic ratio ([2]; 100 μM): 8.12 ± .26%
apoptotic ratio ([3]; HL-60, 5 μM): 6.14 ± .20%
apoptotic ratio ([3]; HL-60, 10 μM): 8.67 ± 2.06%
apoptotic ratio ([3]; HL-60, 25 μM): 21.13 ± 0.37%
apoptotic ratio ([3]; HL-60, 50 μM): 27.02 ± 2.69%
apoptotic ratio ([3]; HL-60, 100 μM): 22.24 ± 1.06%
apoptotic ratio ([4]; COLO 205, 5 μM): 6.94 ± .33%
apoptotic ratio ([4]; COLO 205, 10 μM): 8.69 ± 1.65%
apoptotic ratio ([4]; COLO 205, 25 μM): 26.95 ± 0.30%
apoptotic ratio ([4]; COLO 205, 50 μM): 15.44 ± .08%
apoptotic ratio ([4]; COLO 205, 100 μM): 17.82 ± 2.26%
IC50 [5]: 76.6 ± 5.5 µM
IC50 [6]: 66.4 ± 6.29 µM
IC50 [7]: 35.3 ± 0.44 µM
IC50 [8]: 56.7 ± 3.66 µM

CC(=O)OCCC[C@H](C)C1=C[C@@H]2[C@H](C)C(=O)O[C@@H]2C[C@@]1(C)O [Compound 2, neobritannilactone A]
apoptotic ratio ([1]; HT-29, 5 μM): 3.94 ± 1.05%
apoptotic ratio ([1]; HT-29, 10 μM): 4.24 ± 0.24%
apoptotic ratio ([1]; HT-29, 25 μM): 5.17 ± 1.70%
apoptotic ratio ([1]; HT-29, 50 μM): 4.09 ± 0.77%
apoptotic ratio ([1]; HT-29, 100 μM): 7.73 ± 3.22%
apoptotic ratio ([2]; 5 μM): 9.23 ± 0.22%
apoptotic ratio ([2]; 10 μM): 9.83 ± 2.27%
apoptotic ratio ([2]; 25 μM): 10.57 ± 2.11%
apoptotic ratio ([2]; 50 μM): 9.41 ± 2.83%
apoptotic ratio ([2]; 100 μM): 9.81 ± 2.30%
apoptotic ratio ([3]; HL-60, 5 μM): 6.68 ± 1.51%
apoptotic ratio ([3]; HL-60, 10 μM): 6.31 ± 0.98%
apoptotic ratio ([3]; HL-60, 25 μM): 6.19 ± 0.01%
apoptotic ratio ([3]; HL-60, 50 μM): 6.63 ± 2.21%
apoptotic ratio ([3]; HL-60, 100 μM): 16.31 ± 1.63%
apoptotic ratio ([4]; COLO 205, 5 μM): 4.08 ± 0.21%
apoptotic ratio ([4]; COLO 205, 10 μM): 6.51 ± 2.28%
apoptotic ratio ([4]; COLO 205, 25 μM): 4.28 ± .93%
apoptotic ratio ([4]; COLO 205, 50 μM): 5.44 ± 0.47%
apoptotic ratio ([4]; COLO 205, 100 μM): 25.50 ± 3.46%
IC50 [5]: > 100 µM
IC50 [6]: > 100 µM
IC50 [7]: 85.8 ± 4.97 µM
IC50 [8]: 97.9 ± 1.16 µM

C=C1C(=O)OC2CC(C)=C(C(C)CCCO)C(OC(=O)C(C)CC)C12 (stereo not drawn) [Compound 1, 6β-O-(2-methylbutyryl)-britannilactone]
apoptotic ratio ([1]; HT-29, 5 μM): 4.24 ± 0.40%
apoptotic ratio ([1]; HT-29, 10 μM): 3.68 ± 0.47%
apoptotic ratio ([1]; HT-29, 25 μM): 3.93 ± 0.16%
apoptotic ratio ([1]; HT-29, 50 μM): 5.16 ± 0.93%
apoptotic ratio ([1]; HT-29, 100 μM): 6.40 ± 0.28%
apoptotic ratio ([2]; 5 μM): 10.89 ± 1.69%
apoptotic ratio ([2]; 10 μM): 11.38 ± 1.12%
apoptotic ratio ([2]; 25 μM): 17.76 ± 0.76%
apoptotic ratio ([2]; 50 μM): 28.48 ± 1.20%
apoptotic ratio ([2]; 100 μM): 27.10 ± 0.54%
apoptotic ratio ([3]; HL-60, 5 μM): 6.41 ± 0.79%
apoptotic ratio ([3]; HL-60, 10 μM): 5.36 ± 0.61%
apoptotic ratio ([3]; HL-60, 25 μM): 10.53 ± 3.34%
apoptotic ratio ([3]; HL-60, 50 μM): 28.60 ± 2.67%
apoptotic ratio ([3]; HL-60, 100 μM): 27.05 ± 0.54%
apoptotic ratio ([4]; COLO 205, 5 μM): 5.33 ± 0.78%
apoptotic ratio ([4]; COLO 205, 10 μM): 5.86 ± 0.32%
apoptotic ratio ([4]; COLO 205, 25 μM): 15.20 ± 1.02%
apoptotic ratio ([4]; COLO 205, 50 μM): 27.21 ± 5.51%
apoptotic ratio ([4]; COLO 205, 100 μM): 36.24 ± 0.76%
IC50 [5]: 48.1 ± 2.26 µM
IC50 [6]: 31.3 ± 1.8 µM
IC50 [7]: 47.1 ± 1.55 µM
IC50 [8]: 58.7 ± 1.32 µM
